Results taken from patent US7169805B2 (Nicox S.A., priority 2003, dated 2007).

Experiments:
SHR rats = assay: Antihypertensive activity in a genetic model of hypertension (SHR rats), arterial pressure; format: in vivo, rat; details: single oral dose 30 mg/Kg; for Arterial pressure (MAP): 4 hours after treatment; for Reduction of blood pressure vs the control: 4 hrs after treatment
Description: (§1) SHR rats were treated orally in a single dose of 30 mg/Kg. After 2 hours the animal were anaesthetized with tiopental-Na; a fluid catheter was inserted in a right carotid artery and connected to a transducer for the homodynamic measurements. 4 hours after the treatment the arterial pressure (MAP, mmHg) was measured.

[1] = test system: isolated rabbit thoracic aorta preparations; assay: Vasorelaxing activity in isolated rabbit thoracic aorta rings precontracted with noradrenaline; format: cell-based; details: for IC50 / Emax: Oryctolagus cuniculus, NA (1 μM) precontracted rings with functional endothelium; for IC50: read-out: IC50 (concentration producing 50% of the maximum relaxation); for Emax: at 100 μM of tested compound, read-out: Emax (maximum efficacy)
Description: Male New Zealand rabbits were anaesthetized with thiopental-Na (50 mg/kg, iv), sacrificed by exsanguinations and then the thorax was opened and the aorta dissected. Single ring preparations (4 mm in length) of thoracic aorta were set up in physiological salt solution (PSS) at 37° C. in small organ chambers (5 ml). The composition of PSS was (mM): NaCl 130, NaHCO3 14.9, KH2PO4 1.2, MgSO4 1.2, HEPES 10, […] (95% O2/5% CO2; pH 7.4). Each ring was mounted under 2 g passive tension. Isometric tension was recorded with a Grass transducer (Grass FT03) attached to a BIOPAC MP150 System. Preparations were allowed to equilibrate for 1 h, then contracted submaximally with noradrenaline (NA, 1 μM) and, when the contraction was stable, acetylcholine (ACh, 10 μM) was added. A relaxant response to ACh indicated the presence of a functional endothelium. […] When a stable precontraction was reached, a cumulative concentration-response curve for each of the tested compounds was obtained in the presence of a functional endothelium. Time intervals between different concentrations were based on the time needed to reach a full response. Each arterial ring was exposed to only one combination of inhibitor and the tested compounds. Moreover, the effect of the soluble guanylyl cyclase inhibitor ODQ (1-H-(1,2,4)-oxadiazol (4,3-a)quinoxalin-1-one) on the dilator responses elicited by the compounds was examined preincubating the aortic rings with ODQ (10 μM) for 20 min.
Results are expressed as IC50 value, which is the concentration of the tested compound producing 50% of the maximum relaxation, and as Emax value which is the maximum efficacy at a concentration of 100 μM of the tested compound.
During the experimental period, the plateau obtained with NA was stable without significant spontaneous loss of contraction in the aortic rings.
Furthermore, in experiments performed in presence of ODQ (10 μM), the vasorelaxant responses to all the tested compounds were inhibited.

ACE = molecular target: T1, ACE (Rattus norvegicus, UniProt P47820); assay: Plasma ACE activity of treated SHR rats, spectrophotometric FAPGG hydrolysis; format: in vivo; details: heparinized plasma of SHR rats after single oral dose 30 mg/Kg, collected at end of experiment
T1 construct: from tissue; host or cells: heparinized plasma of orally treated SHR rats
T1 sequence (P47820 36-1238 limits assumed): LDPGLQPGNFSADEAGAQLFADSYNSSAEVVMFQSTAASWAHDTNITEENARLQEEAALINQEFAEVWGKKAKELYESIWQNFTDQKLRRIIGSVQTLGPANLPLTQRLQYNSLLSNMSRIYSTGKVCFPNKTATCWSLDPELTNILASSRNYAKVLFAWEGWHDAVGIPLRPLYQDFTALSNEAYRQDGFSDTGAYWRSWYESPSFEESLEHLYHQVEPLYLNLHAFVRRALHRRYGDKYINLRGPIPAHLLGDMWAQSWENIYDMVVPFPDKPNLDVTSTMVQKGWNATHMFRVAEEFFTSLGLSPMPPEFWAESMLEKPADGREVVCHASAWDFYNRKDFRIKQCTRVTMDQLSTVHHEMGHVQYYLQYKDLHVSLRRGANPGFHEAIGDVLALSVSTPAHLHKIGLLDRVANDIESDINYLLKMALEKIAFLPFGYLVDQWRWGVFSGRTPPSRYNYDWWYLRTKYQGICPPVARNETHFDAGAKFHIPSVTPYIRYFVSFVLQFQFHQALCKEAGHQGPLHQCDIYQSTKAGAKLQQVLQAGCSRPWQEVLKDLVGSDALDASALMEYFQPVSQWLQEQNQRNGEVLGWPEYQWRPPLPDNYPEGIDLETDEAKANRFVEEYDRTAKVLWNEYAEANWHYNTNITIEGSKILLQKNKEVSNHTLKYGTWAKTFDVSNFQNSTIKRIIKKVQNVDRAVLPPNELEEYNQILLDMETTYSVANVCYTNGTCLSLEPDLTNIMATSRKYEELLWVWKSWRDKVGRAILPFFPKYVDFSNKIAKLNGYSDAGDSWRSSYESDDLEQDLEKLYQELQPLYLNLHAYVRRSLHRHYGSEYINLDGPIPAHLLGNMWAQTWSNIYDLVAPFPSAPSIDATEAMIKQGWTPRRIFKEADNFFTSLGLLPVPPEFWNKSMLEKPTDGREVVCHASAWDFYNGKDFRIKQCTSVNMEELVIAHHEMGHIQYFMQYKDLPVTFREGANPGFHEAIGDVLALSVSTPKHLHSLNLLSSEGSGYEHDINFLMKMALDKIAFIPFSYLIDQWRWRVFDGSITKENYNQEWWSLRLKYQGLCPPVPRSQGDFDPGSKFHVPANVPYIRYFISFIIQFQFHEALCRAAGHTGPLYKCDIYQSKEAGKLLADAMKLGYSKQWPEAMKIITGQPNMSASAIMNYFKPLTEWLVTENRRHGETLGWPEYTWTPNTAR
Description: as §1
At the end of the experiments the blood was collected from the right carotid. The heparinized blood samples were centrifuged at 1000 g for 20 min at 4° C. The plasma was stored at −20° C. until the ACE activity measurements.
The ACE activity was determined by a spectrophotometric method (Sigma) based on the enzymatic reaction catalysed by ACE, where the FAPGG was hydrolysed to FAP.
FAPGG hydrolysis produced a decrease in the absorbance at 340 nm, a marker of ACE activity in the sample. Results, reported in table 3, were expressed as U/L in heparinized plasma.

[2] = given orally; cited from earlier work

SMILES	Arterial pressure (MAP) (SHR rats)	Reduction of blood pressure vs the control (SHR rats)	IC50 [1]	Emax [1]	ACE activity (ACE)	Bioavailability [2]	Elimination route (in words) [2]	Relaxation of aortic rings (in words) ([1]; any of the concentrations tested, curve not different from vehicle alone)
CC(=O)SC[C@@H](C)C(=O)N1CCC[C@H]1C(=O)OCCCO[N+](=O)[O-] [Ex. 8, 1-[3-(Acetylthio)-(2S)-methyl-1-oxopropyl]-L-proline 3-nitrooxypropyl ester]	132 mmHg	35%	26.1 ± 3.91 µM	77.9 ± 3.21%	59 U/L	–	–	–
CC(=O)SC[C@@H](C)C(=O)N1CCC[C@H]1C(=O)Oc1cccc(CO[N+](=O)[O-])c1 [Ex. 8b, 1-[3-(acetylthio)-(2S)-methyl-1-oxopropyl]-L-proline 3-nitrooxymethylphenyl ester]	116 mmHg	43%	4.01 ± 1.18 µM	92.4 ± 4.15%	53 U/L	–	–	–
C[C@H](CS)C(=O)N1CCC[C@H]1C(=O)O [Captopril, 1-[(2S)-3-mercapto-2-methylpropionyl]-L-proline, reference compound]	145 mmHg	–	–	0%	–	about 75%	most of the drug is eliminated in urine	did not produce relaxation
CC(=O)SC[C@@H](C)C(=O)N1CCC[C@H]1C(=O)N[C@H](Cc1ccccc1)C(=O)Oc1cccc(CO[N+](=O)[O-])c1 [Ex. 9, 1-[(2S)-3-(Acetylthio)-2-methyl-1-oxopropyl]-L-prolyl-L-phenylalanine 3-nitrooxymethyl phenyl ester]	–	–	3.2 ± 0.65 µM	96.8 ± 0.65%	–	–	–	–
C[C@H](CSC(=O)OCCCCO[N+](=O)[O-])C(=O)N1CCC[C@H]1C(=O)O [Ex. 2, 1-[(2S)-3-(4-Nitrooxybutoxycarbonyl)mercapto-2-methyl-1-oxopropyl]-L-proline]	–	–	6 ± 0.87 µM	96.9 ± 1.87%	–	–	–	–
C[C@H](CSC(=O)OCO[N+](=O)[O-])C(=O)N1CCC[C@H]1C(=O)O [Ex. 3, 1-[(2S)-3-(Nitrooxymethoxycarbonyl)mercapto-2-methyl-1-oxopropyl]-L-proline]	–	–	6.7 ± 0.84 µM	97.9 ± 1.51%	–	–	–	–
